Assay results as given in patent US20050080076A1 (Xanodyne Pharmacal, Inc., priority 2003, published 2005).

Target: Adrenergic α1A (Homo sapiens, UniProt P25100)
Test: Receptor binding, Adrenergic α1A
Method: Receptor-ligand binding studies were performed as known to one skilled in the art. Compounds evaluated were LMP, the parent compound, the NDM LMP metabolite of LMP, and the sulfoxide metabolite of LMP. These studies verified receptor binding and affinity by the parent compound, as well as identified other potential receptors for the parent compound and its metabolites, and identified and verified receptors and receptor affinity for the metabolites. […] Binding to the histamine H1 receptor, the calcium ion channel receptor, and the sodium ion channel receptor were also evaluated. In each of the tables, the following abbreviations are used: LMP indicates the parent compound levomepromazine. NDM LMP indicates the N-desmethyl (N-desmethyl) metabolite. Sulfoxide indicates the sulfoxide metabolite. […] Ki (the inhibition constants of binding) indicate binding affinity.

Chain of Adrenergic α1A (P25100 whole entry): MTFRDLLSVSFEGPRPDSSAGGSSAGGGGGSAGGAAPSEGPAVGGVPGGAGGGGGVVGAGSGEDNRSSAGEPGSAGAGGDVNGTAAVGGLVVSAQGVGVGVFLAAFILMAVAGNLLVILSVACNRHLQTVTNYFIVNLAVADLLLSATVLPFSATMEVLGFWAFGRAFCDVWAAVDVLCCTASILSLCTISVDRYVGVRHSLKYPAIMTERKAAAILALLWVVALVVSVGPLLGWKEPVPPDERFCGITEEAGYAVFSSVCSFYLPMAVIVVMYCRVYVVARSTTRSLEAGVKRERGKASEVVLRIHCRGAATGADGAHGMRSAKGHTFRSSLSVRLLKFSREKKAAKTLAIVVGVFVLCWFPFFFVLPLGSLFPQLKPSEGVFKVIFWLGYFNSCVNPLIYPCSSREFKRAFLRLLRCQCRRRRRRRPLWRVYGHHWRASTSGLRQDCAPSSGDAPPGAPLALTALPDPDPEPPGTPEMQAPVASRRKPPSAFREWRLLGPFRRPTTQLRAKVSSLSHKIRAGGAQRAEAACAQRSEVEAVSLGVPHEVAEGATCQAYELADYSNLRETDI

`COc1ccc2c(c1)N(C[C@H](C)CN(C)C)c1ccccc1[S+]2[O-]` (stereo partly shown) [Sulfoxide, levomepromazine sulfoxide] showed a Ki of 141 nM.
